Consider 33 compounds from PubChem BioAssay AID1645848.

Values after ≈ are worked out from the molar mass of the structure shown.

The conditions of this data set: buffer; pH 7.4; 6.0 h; 150.0 µM.
Regarding `C=C[C@]1(C)C[C@@H](OC(=O)CSC(C)(C)CNC(=O)[C@H](N)C(C)C)[C@]2(C)[C@H](C)CC[C@]3(CCC(=O)[C@H]32)[C@@H](C)[C@@H]1O`, the kinetic solubility (usually solubility judged after dilution from a stock solution rather than from solid) was 36.6 µg/mL (≈ 64.8 µM).

The compound `COC(=O)CNC(=O)c1nc(-c2ccccc2OC)c2ccccn12` registered a solubility (kinetic) of more than 60 µg/mL.

In turn, `O=C(c1cnc(N2CCCCC2)c2ccccc12)N1CCN(c2ccccn2)CC1` registered a kinetic solubility of more than 59 µg/mL.

The compound `COc1cccc(CNc2ccc(S(=O)(=O)Nc3ccccc3)cc2)c1O` gave a solubility (kinetic) of less than 1 µg/mL.

`CCOC(=O)C1CCN(C(=O)C(C)(C)NC(=O)Nc2ccc(Cl)cc2Cl)CC1` registered a solubility (kinetic) of 37 µg/mL (≈ 86 µM).

`C[C@H]1CN(C(=O)Nc2ccc(F)cc2)C[C@@H]1c1nc(-c2ccccc2)no1` had a kinetic solubility of 4.11 µg/mL (≈ 11.2 µM).

Take `O=C(NC1CCN(c2cc(-c3ccc(Cl)cc3)[nH]n2)C1)c1ccccc1` (stereo not drawn): the kinetic solubility is less than 1 µg/mL.

For `COc1ccccc1-c1nnc2sc(-c3ccc(N(C)C)cc3)nn12`, the kinetic solubility was found to be 1.04 µg/mL (≈ 2.96 µM).

Take `NC(=O)c1cnc(N[C@@H]2CCCC[C@@H]2N)nc1Nc1cccc(-n2nccn2)c1`: the kinetic solubility was more than 39 µg/mL.

For `FC(F)(F)c1cc(-c2ccc(CNc3nc(-c4ccccc4C(F)(F)F)nc4ccsc34)cc2)ccn1`, the kinetic solubility is less than 1 µg/mL.

`Cn1nc(-c2ccccc2F)c2cc(C(=O)Nc3cc(F)ccc3F)sc21` registered a kinetic solubility of less than 1 µg/mL.

Compound `CC1=C(C(=O)Nc2nnc(-c3ccccc3)s2)C(c2nn(C)cc2Cl)N=C(Nc2nc3ccccc3o2)N1` (stereo not drawn) gave a kinetic solubility of less than 1 µg/mL.

Regarding `CC(C)(C)OC(=O)NC1CCN(c2nc(-c3ccc(Br)cc3)cs2)CC1`, the kinetic solubility came out at 6.48 µg/mL (≈ 14.8 µM).

In turn, `CCCCCCCc1c(C)nc(N2CCOCC2)[nH]c1=O` had a solubility (kinetic) of 4.18 µg/mL (≈ 14.3 µM).

Consider `COc1cccc(OC)c1C(=O)Nc1ccccc1C(=O)Nc1cccc(C(F)(F)F)c1`, for which the kinetic solubility is less than 1 µg/mL.

`CCOC(=O)N1CCN(Cc2nc3cc(NC(=O)c4ccc(OC)cc4)ccc3n2C(C)C)CC1` yielded a solubility (kinetic) of 14.7 µg/mL (≈ 30.7 µM).

In turn, `CC(=O)c1c(C)n(-c2ccccc2)c2ccc(O)cc12` registered a solubility (kinetic) of 1.14 µg/mL (≈ 4.28 µM).

Consider `CC[C@H](C)[C@@H]([C@@H](CC(=O)N1CCC[C@H]1[C@H](OC)[C@@H](C)C(=O)N[C@@H](Cc1ccccc1)c1nccs1)OC)N(C)C(=O)[C@@H](NC(=O)[C@H](C(C)C)N(C)C)C(C)C`, for which the solubility (kinetic) was 65.7 µg/mL (≈ 83.7 µM).

`FC(F)(F)c1cccc(N2CCN(C(=S)Nc3ccccn3)CC2)c1` displayed a solubility (kinetic) of 13.4 µg/mL (≈ 36.5 µM).

`COC(=O)c1ccccc1C(=O)Nc1nc(-c2ccccc2)cs1` registered a solubility (kinetic) of 7.61 µg/mL (≈ 22.5 µM).

`COc1ccc(-n2c(C)c(C(C)=O)c3cc(OC(=O)COc4ccccc4)ccc32)cc1` yielded a solubility (kinetic) of less than 1 µg/mL.

In turn, `COc1cc(Nc2nc(-c3ccncc3)nc3ccccc23)ccc1NS(C)(=O)=O` displayed a kinetic solubility of less than 1 µg/mL.

Consider `NC(=O)C1CCN(c2nc(-c3ccc4c(c3)OCO4)cs2)CC1`, for which the solubility (kinetic) is more than 49 µg/mL.

Consider `Cc1ccc(-c2csc(CCn3nc(C)c4c(C(F)(F)F)cc(=O)[nH]c43)n2)cc1`, for which the solubility (kinetic) is less than 1 µg/mL.

In turn, `CCc1oc2ccccc2c1C(=O)c1cc(I)c(O)c(I)c1` gave a kinetic solubility of more than 77 µg/mL.

Regarding `Cc1cccc(-n2cnc3cc(C(=O)N4CCCC(C)(C)C4)ccc32)c1`, the solubility (kinetic) was 37.7 µg/mL (≈ 109 µM).

In the case of `COc1cc(-c2nc(Nc3ccc(F)c(F)c3)c3ccccc3n2)ccn1`, the kinetic solubility was less than 1 µg/mL.

In turn, `C#C[C@]1(OC(C)=O)CC[C@H]2[C@@H]3CCC4=C/C(=N/O)CC[C@@H]4[C@H]3CC[C@@]21CC` came in with a kinetic solubility of less than 1 µg/mL.

In turn, `c1cc(-c2cc(-c3ccncc3)c3cncn3c2)c2[nH]ncc2c1` returned a solubility (kinetic) of 2.43 µg/mL (≈ 7.8 µM).

Take `O=C(Nc1ccc(S(=O)(=O)Nc2nccs2)cc1)c1ccnc(-c2ccccc2)c1`: the kinetic solubility came to 15.6 µg/mL (≈ 35.8 µM).

In the case of `Cc1ccc(C)c(CN2CCC(CNC(=O)Nc3ccc(Br)cc3F)CC2)c1`, the kinetic solubility was 27.9 µg/mL (≈ 62.3 µM).

As to `FC(F)(F)c1ccc(CN2CCNc3cc(Nc4ccccc4)ncc3C2)cc1`, the solubility (kinetic) is less than 1 µg/mL.

Consider `COc1ncc(-c2ccc3c(Nc4cc(Oc5cc(F)cc(F)c5)cc(C(=O)O)c4)c(S(=O)(=O)NC4CC4)cnc3c2)c(OC)n1`, for which the kinetic solubility was determined as 21.5 µg/mL (≈ 33.1 µM).
